How the values were obtained:
Assay in all cases: relative viability (nuclei count vs DMSO), 5 days (fraction); higher = more cells survive
[1] = compound: CN[C@@H]1C[C@H]2O[C@@](C)([C@@H]1OC)n1c3ccccc3c3c4c(c5c6ccccc6n2c5c31)C(=O)NC4 [Staurosporine] + CC(=O)Nc1cccc(-n2c(=O)n(C3CC3)c(=O)c3c(Nc4ccc(I)cc4F)n(C)c(=O)c(C)c32)c1 [Trametinib] (partner 0.02 µM)
In short: (§1)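 A single step with final 0.05% Triton X-100, 1% formaldehyde and 1 ug/ml Hoechst fixed the cells and stained nuclei 5 days after treatment. Lung cancer cell lines in 1536-well plates had been treated by pin tool the day after seeding with one drug alone or a fixed anchor-drug dose plus five library-drug doses (not always all listed) in √10 steps, and nuclei were counted on 4× images. Relative viability is the ratio of nuclei in treated wells to nuclei in vehicle wells, taken as the median of duplicate plates.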

[2] = compound: CN[C@@H]1C[C@H]2O[C@@](C)([C@@H]1OC)n1c3ccccc3c3c4c(c5c6ccccc6n2c5c31)C(=O)NC4 [Staurosporine] + O=C(CCCCCCC(=O)Nc1ccccc1)NO [Vorinostat] (partner 1 µM)
In short: as §1

Sulindac + Alpelisib = compound: CC1=C(CC(=O)O)c2cc(F)ccc2/C1=C\c1ccc([S+](C)[O-])cc1 [Sulindac] + Cc1nc(NC(=O)N2CCC[C@H]2C(N)=O)sc1-c1ccnc(C(C)(C)C(F)(F)F)c1 [Alpelisib] (partner 2 µM)
In short: as §1

[3] = compound: O=c1[nH]cc(F)c(=O)[nH]1 [5-Fluorouracil] + Cc1nc(Nc2ncc(C(=O)Nc3c(C)cccc3Cl)s2)cc(N2CCN(CCO)CC2)n1 [Dasatinib] (partner 0.075 µM)
In short: as §1

Cell Line	relative viability ([1]; first compound 0.005 µM)	relative viability ([1]; first compound 0.01581 µM)	relative viability ([1]; first compound 0.05 µM)	relative viability ([1]; first compound 0.1581 µM)	relative viability ([1]; first compound 0.5 µM)	relative viability ([2]; first compound 0.005 µM)	relative viability ([2]; first compound 0.01581 µM)	relative viability ([2]; first compound 0.05 µM)	relative viability ([2]; first compound 0.1581 µM)	relative viability ([2]; first compound 0.5 µM)	relative viability (Sulindac + Alpelisib; first compound 0.08 µM)	relative viability (Sulindac + Alpelisib; first compound 0.253 µM)	relative viability (Sulindac + Alpelisib; first compound 0.8 µM)	relative viability (Sulindac + Alpelisib; first compound 2.53 µM)	relative viability (Sulindac + Alpelisib; first compound 8 µM)	relative viability ([3]; first compound 0.02 µM)	relative viability ([3]; first compound 0.2 µM)	relative viability ([3]; first compound 0.6325 µM)	relative viability ([3]; first compound 2 µM)
NCI-H1355	0.279	0.255	0.232	0.22	0.147	0.597	0.227	0.235	0.138	0.111	0.912	0.945	0.784	0.842	0.854	0.824	0.58	0.283	0.234
EKVX	0.224	0.184	0.143	0.169	0.12	0.597	0.236	0.19	0.248	0.181	0.819	0.824	0.721	0.997	1.04	–	–	–	–
NCI-H520	0.708	0.536	0.303	0.16	0.112	0.726	0.498	0.384	0.191	0.148	0.965	0.839	0.894	0.873	1.17	0.152	0.234	0.174	0.142
NCI-H1993	0.45	0.453	0.51	0.36	0.278	0.588	0.275	0.475	0.344	0.232	0.664	0.674	0.695	0.753	0.707	0.581	0.566	0.503	0.487
HCC-78	0.806	0.676	0.484	0.407	0.428	0.475	0.377	0.388	0.367	0.279	0.353	0.387	0.352	0.27	0.374	0.34	0.427	0.322	0.254
NCI-H2087	0.167	0.142	0.0865	0.0713	0.0829	0.628	0.407	0.354	0.0753	0.0552	1.16	1	1.23	1.17	1.04	0.917	0.835	0.532	0.483
H3255	0.48	0.321	0.236	0.197	0.141	0.276	0.219	0.384	0.48	0.133	0.805	0.768	0.537	0.747	0.898	0.304	0.5	0.328	0.359
NCI-H2126	0.592	0.373	0.375	0.339	0.345	0.784	0.201	0.426	0.233	–	0.723	0.737	0.669	0.721	0.807	0.552	0.315	0.244	0.212
LC-2-ad	0.945	0.732	0.559	0.165	0.122	0.635	0.158	0.217	0.13	0.0772	0.886	0.913	0.86	0.917	0.974	0.785	0.354	0.328	0.209
SK-LU-1	0.253	0.15	0.172	0.187	0.12	0.265	0.206	0.179	0.164	0.148	1.11	1.02	0.964	0.936	1.23	0.189	0.182	0.195	0.166
EBC-1	–	–	–	–	–	–	–	–	–	–	0.993	0.944	0.848	0.79	0.887	–	–	–	–
HCC-15	0.305	–	0.192	0.192	0.165	0.811	–	0.485	0.28	0.213	0.989	0.957	0.813	0.828	0.968	0.701	0.713	0.417	0.275
NCI-H1563	–	–	–	–	–	–	–	–	–	–	0.915	0.853	0.86	0.884	0.923	0.396	0.517	0.423	0.483
COR-L 105	0.427	0.357	0.274	0.234	0.237	0.69	0.289	0.228	0.333	0.224	0.826	0.818	0.673	0.949	1.29	0.292	0.362	0.29	0.244
NCI-H647	0.295	0.151	0.0868	0.0601	0.0349	0.247	0.117	0.0686	0.0506	0.0527	1.43	1.27	0.718	1.15	1.23	0.193	0.232	0.206	0.188
LU99A	0.461	0.243	0.23	0.182	0.133	0.452	0.16	0.173	0.128	0.107	0.468	0.564	0.455	0.498	0.596	0.575	0.655	0.567	0.4
NCI-H1703	–	–	–	–	–	–	–	–	–	–	0.37	0.346	0.301	0.461	0.341	–	–	–	–
NCI-H2170	–	–	0.904	0.63	0.379	0.875	–	0.488	0.0663	0.0848	1.03	0.904	0.613	0.835	0.912	0.566	0.53	0.393	0.28
NCI-H2342	0.948	0.675	0.499	0.417	0.363	0.987	0.74	0.444	0.34	0.3	–	–	–	–	–	0.305	0.343	0.301	0.293
